One data set concerns PDE4. Put plainly: Inhibition of PDE4 activity (method of Bauer and Schwabe, adapted to microtitre plates). Type of data set: biochemical. The method, then:
Inhibition f PDE 4 Activity
The activity test was carried out according to the method of Bauer and Schwabe, which was adapted to microtitre plates (Naunyn-Schmiederberg's Arch. Pharmacol. 311, 193-198. 1980). In this test, the PDE reaction is carried out in the first step. In a second step, the resultant 5′-nucleotide is cleaved to the uncharged nucleoside by a snake venom 5′-nucleotidase from Crotalus Atrox. In the third step, the nucleoside is separated from the remaining charged substrate on ion exchange columns. The columns are eluted directly into minivials using 2 ml of 30 mM ammonium formate (pH 6.0), to which a further 2 ml or scintillation fluid is added for counting.
The inhibitory values determined for the compounds according to the invention follow from the following table A, in which the numbers of the compounds correspond to the numbers of the examples.

Results on six molecules are retold here after patent publication US6756371B1, “Phthalazinone derivatives as PDE4 inhibitors” (Altana Pharma AG, priority 1999, dated 2004).

Regarding `CCOc1ccc(C2=NN(c3ccc(C(=O)N4CCSCC4)cc3)C(=O)[C@H]3CC=CC[C@@H]23)cc1OCC` (relative stereo) [compound 3, (cis)-4-(3,4-Diethoxyphenyl)-2-[4-(1-thiomorpholin-4-ylcarbonyl)phenyl]-4a,5,8,8a-tetrahydro-2H-phthalazin-1-one], the melting point lay in the range of 104 to 106 °C. In addition, the “Inhibition of PDE4 activity [measured as −logIC50 (mol/l)]” value with PDE4 stood at 7.82.
The like results for `CCOc1ccc(C2=NN(c3ccc(C(=O)N4CCS(=O)(=O)CC4)cc3)C(=O)[C@H]3CC=CC[C@@H]23)cc1OCC` (relative stereo) [compound 6, (cis)-4-(3,4-Diethoxyphenyl)-2-[4-(1,1-dioxothiomorpholin-4-ylcarbonyl)phenyl]-4a,5,8,8a-tetrahydro-2H-phthalazin-1-one] were, in that order, 186 to 187 °C and 7.81.
Take `CCOc1ccc(C2=NN(c3ccc(C(=O)N4CCOCC4)cc3)C(=O)C3CC=CCC23)cc1OCC` (stereo not drawn) [compound 1, (cis)-4-(3,4-Diethoxyphenyl)-2-[4-(N-morpholinocarbonyl)phenyl]-4a,5,8,8a-tetrahydro-2H-phthalazin-1-one]: the melting point is 144 to 145 °C. In addition, the “Inhibition of PDE4 activity [measured as −logIC50 (mol/l)]” value in the data set on PDE4 is reported as 7.99.
Regarding `COc1ccc(C2=NN(c3ccc(C(=O)N4CCOCC4)cc3)C(=O)C3CC=CCC23)c2c1OC(C)(C)C2` (stereo not drawn) [compound 2, (cis)-4-(2,3-Dihydro-2,2-dimethyl-7-methoxybenzofuran-4-yl)-2-[4-(N-morpholinocarbonyl)-phenyl]-4a,5,8,8a-tetrahydro-2H-phthalazin-1-one], in the data set on PDE4, the “Inhibition of PDE4 activity [measured as −logIC50 (mol/l)]” value is listed as 8.77.
The same measure, in the same setting: with `CCOc1ccc(C2=NN(c3ccc(S(=O)(=O)N4CCOCC4)cc3)C(=O)C3CC=CCC23)cc1OCC` (stereo not drawn) [compound 4, (cis)-4-(3,4-Diethoxyphenyl)-2-[4-(N-morpholinosulfonyl)phenyl]-4a,5,8,8a-tetrahydro-2H-phthalazin-1-one] the figure was 9.22; with `COc1ccc(C2=NN(c3ccc(S(=O)(=O)N4CCOCC4)cc3)C(=O)C3CC=CCC23)c2c1OC(C)(C)C2` (stereo not drawn) [compound 5, (cis)-4-(2,3-Dihydro-2,2-dimethyl-7-methoxybenzofuran-4-yl)-2-[4(N-morpholinosulfonyl)phenyl]-4a,5,8,8a-tetrahydro-2H-phthalazin-1-one], 9.71.
